Experimental data from PubChem BioAssay (NCI).
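GI50 marks 50% less growth. The concentration for full growth arrest is given as TGI.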

Tests used:
Test in all cases: NCI tumour cell line growth inhibition, 384-well format
[1] = test system: MDA-MB-231 breast
[2] = test system: CAKI-1 renal
[3] = test system: K-562 leukemia
[4] = test system: A549 NSCLC
[5] = test system: SK-OV-3 ovarian
[6] = test system: IGROV1 ovarian
[7] = test system: SF-539 CNS
[8] = test system: HS 578T breast
[9] = test system: OVCAR-5 ovarian
[10] = test system: PC-3 prostate
[11] = test system: SF-268 CNS
[12] = test system: HCT-15 colon
[13] = test system: NCI-H322M lung
[14] = test system: UO-31 renal
[15] = test system: SK-MEL-28 melanoma
[16] = test system: SK-MEL-2 melanoma
[17] = test system: HOP-62 NSCLC
[18] = test system: NCI-H226 lung
[19] = test system: M14 melanoma
[20] = test system: A498 renal
[21] = test system: HT29 colon
[22] = test system: BT-549 breast
[23] = test system: KM12 colon
[24] = test system: SW-620 colon
[25] = test system: NCI-H522 lung
[26] = test system: OVCAR-3 ovarian
[27] = test system: EKVX NSCLC
[28] = test system: MOLT-4 leukemia
[29] = test system: RXF 393 renal
[30] = test system: SR leukemia
[31] = test system: TK-10 renal
[32] = test system: 786-0 renal
[33] = test system: SNB-19 CNS
[34] = test system: SNB-75 CNS
[35] = test system: SK-MEL-5 melanoma
[36] = test system: UACC-257 melanoma
[37] = test system: HOP-92 NSCLC
[38] = test system: SN12C renal
[39] = test system: NCI-H23 lung
[40] = test system: ACHN renal
[41] = test system: MDA-MB-468 breast
[42] = test system: MDA-MB-435 melanoma
[43] = test system: UACC-62 melanoma
[44] = test system: COLO 205 colon
[45] = test system: MCF7 breast
[46] = test system: HCT-116 colon
[47] = test system: OVCAR-4 ovarian
[48] = test system: OVCAR-8 ovarian
[49] = test system: DU-145 prostate
[50] = test system: MALME-3M melanoma
[51] = test system: SF-295 CNS
[52] = test system: T-47D breast
[53] = test system: HL-60(TB) leukemia
[54] = test system: NCI-H460 NSCLC

CN(C)C1CCN(C(=O)c2ccc(NC(=O)Nc3ccc(-c4nc(N5CCOCC5)nc(N5CCOCC5)n4)cc3)cc2)CC1 was tested, and the GI50 [1] was 11.7 nM, the TGI [1] was 15000 nM and the GI50 [2] was 278 nM. The TGI [2] was 1230 nM, the GI50 [3] was 42.2 nM and the TGI [3] was 1820 nM. It also gave a GI50 [4] of 22.3 nM, a TGI [4] of 546 nM and a GI50 [5] of less than 10 nM. It also gave a TGI [5] of 39.8 nM, a GI50 [6] of less than 10 nM and a TGI [6] of 43.1 nM. For the same compound, the GI50 [7] was less than 10 nM, the TGI [7] was 113 nM and the GI50 [8] was less than 10 nM. The TGI [8] was 45.5 nM, the GI50 [9] was 50.9 nM and the TGI [9] was 12100 nM. It also gave a GI50 [10] of 18.8 nM, a TGI [10] of 765 nM and a GI50 [11] of 36.3 nM. The TGI [11] was 1760 nM, the GI50 [12] was 3260 nM and the TGI [12] was greater than 100000 nM. It also gave a GI50 [13] of 19.5 nM, a TGI [13] of 149 nM and a GI50 [14] of 2220 nM. The TGI [14] was 7290 nM, the GI50 [15] was 42.8 nM and the TGI [15] was 1150 nM. The GI50 [16] was 37.3 nM, the TGI [16] was 268 nM and the GI50 [17] was 52.1 nM. For the same compound, the TGI [17] was 351 nM, the GI50 [18] was 86.5 nM and the TGI [18] was 441 nM. It also gave a GI50 [19] of 128 nM, a TGI [19] of 5250 nM and a GI50 [20] of 188 nM. It also gave a TGI [20] of 943 nM, a GI50 [21] of 28.6 nM and a TGI [21] of 1470 nM. The GI50 [22] was 17.6 nM, the TGI [22] was 130 nM and the GI50 [23] was 27.7 nM. The TGI [23] was 10300 nM, the GI50 [24] was 75.2 nM and the TGI [24] was 10200 nM. It also gave a GI50 [25] of 24.4 nM, a TGI [25] of 1610 nM and a GI50 [26] of 12.1 nM. The TGI [26] was 323 nM, the GI50 [27] was 40.6 nM and the TGI [27] was 828 nM. For the same compound, the GI50 [28] was 10.7 nM, the TGI [28] was 45.4 nM and the GI50 [29] was 25.2 nM. It also gave a TGI [29] of 203 nM, a GI50 [30] of less than 10 nM and a TGI [30] of 26.4 nM. It also gave a GI50 [31] of 348 nM, a TGI [31] of 1690 nM and a GI50 [32] of 290 nM. For the same compound, the TGI [32] was 2030 nM, the GI50 [33] was 383 nM and the TGI [33] was 14400 nM. It also gave a GI50 [34] of less than 10 nM, a TGI [34] of 33.9 nM and a GI50 [35] of 125 nM. It also gave a TGI [35] of 390 nM, a GI50 [36] of 51.9 nM and a TGI [36] of 338 nM. The GI50 [37] was 21.1 nM, the TGI [37] was 118 nM and the GI50 [38] was 30.3 nM. It also gave a TGI [38] of 12400 nM, a GI50 [39] of 50.8 nM and a TGI [39] of 1120 nM. It also gave a GI50 [40] of 479 nM, a TGI [40] of 5560 nM and a GI50 [41] of less than 10 nM. It also gave a TGI [41] of 22.4 nM, a GI50 [42] of 23.5 nM and a TGI [42] of 352 nM. For the same compound, the GI50 [43] was 24.9 nM, the TGI [43] was 142 nM and the GI50 [44] was 26.7 nM. For the same compound, the TGI [44] was 137 nM, the GI50 [45] was less than 10 nM and the TGI [45] was 176 nM. For the same compound, the GI50 [46] was 31.9 nM, the TGI [46] was 1970 nM and the GI50 [47] was less than 10 nM. The TGI [47] was 50.9 nM, the GI50 [48] was 139 nM and the TGI [48] was 2940 nM. The GI50 [49] was 15 nM, the TGI [49] was 1580 nM and the GI50 [50] was 18.9 nM. The TGI [50] was 73.5 nM, the GI50 [51] was 174 nM and the TGI [51] was 607 nM. It also gave a GI50 [52] of less than 10 nM, a TGI [52] of 11.4 nM and a GI50 [53] of 55.4 nM. For the same compound, the TGI [53] was 227 nM, the GI50 [54] was 18.6 nM and the TGI [54] was 1340 nM.
